Experimental data as given in patent US20120016009A1, “Optimized Methods For Delivery Of DSRNA Targeting The PCSK9 Gene” (priority 2008, published 2012).
In the oligonucleotide strings, read from the 5' end, every base follows the letter of its sugar. An asterisk marks phosphorothioate; unmarked linkages are phosphodiester. Other units and linkages are bracketed, terminal groups are in braces. A string of capitals states the bases alone. [Ab] = 3'-terminal abasic nucleotide; e = 2'-O-(2-methoxyethyl) (MOE); d = 2'-deoxy (DNA); m = 2'-O-methyl; r = 2'-OH (RNA); {P} = phosphate; f = 2'-fluoro

system: PCSK9 mRNA; experiment: In vitro screening of modified dsRNAs targeted to PCSK9 (Table 2b; cell type not given); format: cell-based; settings: 30 nM siRNA
Experimental: For transfection with siRNA, HuH7, HepG2, or HeLa cells were seeded at a density of 2.0×10^4 cells/well in 96-well plates and transfected directly. Transfection of siRNA (30 nM for single dose screen) was carried out with lipofectamine 2000 (Invitrogen GmbH, Karlsruhe, Germany, cat. No. 11668-019) as described by the manufacturer.
24 hours after transfection HuH7 and HepG2 cells were lysed and PCSK9 mRNA levels were quantified with the Quantigene Explore Kit (Genosprectra, Dumbarton Circle Fremont, USA, cat. No. QG-000-02) according to the protocol. PCSK9 mRNA levels were normalized to GAP-DH mRNA. For each siRNA eight individual datapoints were collected. siRNA duplexes unrelated to PCSK9 gene were used as control. The activity of a given PCSK9 specific siRNA duplex was expressed as percent PCSK9 mRNA concentration in treated cells relative to PCSK9 mRNA concentration in cells treated with the control siRNA duplex.
Tables 1b and 2b (and FIG. 6A) summarize the results and provide examples of in vitro screens in different cell lines at different doses. Silencing of PCSK9 transcript was expressed as percentage of remaining transcript at a given dose.

Row | Substance | Remaining mRNA in % of controls at siRNA conc. of 30 nM
1 | AD-12363: modified dsRNA, SEQ ID NO:1423/1424 (chain 1 GCCUGGAGUUUAUUCGGAA; chain 2 rUrUrCrCrGmAmArUrAmAmArCrUrCrCrAmGmGmC*mC*mU; chain 1: sugars from the 5' end rererererererererer, all phosphodiester, methylation of C and T or U not given here) | 11%
2 | AD-12348: modified dsRNA, SEQ ID NO:1395/1396 (chain 1 rGmCmCmUrGrGrArGmUmUmUrAmUmUmCrGrGrArAdT*dT; chain 2 {P}-mUfUmCfCmGfAmAfUmAfAmAfCmUfCmCfAmGfGmCdT*dT) | 8%
3 | AD-12368: modified dsRNA, SEQ ID NO:1433/1434 (chain 1 GCCUGGAGUUUAUUCGGAATT; chain 2 rUrUrCrCrGrArAmUrArArArCrUrCmCrArGrGrCdT*dT; chain 1: DNA at T, 2'-MOE at CU, RNA at AG, linkages o19 s1 (s phosphorothioate, o phosphodiester), methylation of C and T or U not given here) | 40%
4 | AD-12383: modified dsRNA, SEQ ID NO:1461/1462 (chain 1 rGrCrCrUrGrGrArGrUrUrUrArUrUrCrGrGrArAdT*dT; chain 2 {P}-fUfUfCfCrGrArAfUrArArAfCfUfCfCrArGrGfCdT*dT) | 7%
5 | AD-12346: modified dsRNA, SEQ ID NO:1391/1392 (chain 1 fGmCfCmUfGmGfAmGfUmUfUmAfUmUfCmGfGmAfAdT*dT; chain 2 rUrUrCrCrGmAmArUrAmAmArCrUrCrCrAmGmGmC*mC*mU) | 13%
6 | AD-12358: modified dsRNA, SEQ ID NO:1413/1414 (chain 1 GCCUGGAGUUUAUUCGGAA; chain 2 {P}-mUfUmCfCmGfAmAfUmAfAmAfCmUfCmCfAmGfGmC; chain 1: sugars from the 5' end rererererererererer, all phosphodiester, methylation of C and T or U not given here) | 29%
7 | AD-12386: modified dsRNA, SEQ ID NO:1467/1468 (chain 1 fGmCfCmUfGmGfAmGfUmUfUmAfUmUfCmGfGmAfA; chain 2 {P}-fUfUfCfCrGrArAfUrArArAfCfUfCfCrArGrGfCdT*dT) | 11%
8 | AD-12357: modified dsRNA, SEQ ID NO:1411/1412 (chain 1 GCCUGGAGUUUAUUCGGAA; chain 2 rUrUrCrCrGmAmArUrAmAmArCrUrCrCrAmGmGmC; chain 1: sugars from the 5' end rererererererererer, all phosphodiester, methylation of C and T or U not given here) | 56%
9 | AD-12360: modified dsRNA, SEQ ID NO:1417/1418 (chain 1 GCCUGGAGUUUAUUCGGAA; chain 2 rUrUrCrCrGrArArUrArArArCrUrCrCrArGrGrC*mC*mU; chain 1: sugars from the 5' end rererererererererer, all phosphodiester, methylation of C and T or U not given here) | 15%
10 | AD-12048: modified dsRNA, SEQ ID NO:1331/1332 (chain 1 rGmCmCmUrGrGrArGmUmUmUrAmUmUmCrGrGrArArArA; chain 2 rUrUrUrUrCrCrGrArArUrArArArCrUrCrCrArGrGrC*mC*mU) | 43%
11 | AD-12361: modified dsRNA, SEQ ID NO:1419/1420 (chain 1 GCCUGGAGUUUAUUCGGAA; chain 2 rUrUrCrCrGrArAmUrArArArCrUrCmCrArGrGrCdT*dT; chain 1: sugars from the 5' end rererererererererer, all phosphodiester, methylation of C and T or U not given here) | 20%
12 | AD-12364: modified dsRNA, SEQ ID NO:1425/1426 (chain 1 GCCUGGAGUUUAUUCGGAATT; chain 2 rUrUrCrCrGmAmArUrAmAmArCrUrCrCrAmGmGmCdT*dT; chain 1: sugars from the 5' end rerererererererererdd, linkages o19 s1 (s phosphorothioate, o phosphodiester), methylation of C and T or U not given here) | 25%
13 | AD-12055: modified dsRNA, SEQ ID NO:1345/1346 (chain 1 rGmCmCmUrGrGrArGmUmUmUrAmUmUmCrGrGrArAdT*dT; chain 2 rUrUrCrCrGrArArUrArArArCrUrCrCrArGrGrC*mC*mU) | 13%
14 | AD-12060: modified dsRNA, SEQ ID NO:1355/1356 (chain 1 rGmCrCmUrGmGrAmGrUmUrUmArUmUrCmGrGmArA; chain 2 rUrUrCrCrGmAmArUrAmAmArCrUrCrCrAmGmGmC) | 10%
15 | AD-12344: modified dsRNA, SEQ ID NO:1387/1388 (chain 1 fGmCfCmUfGmGfAmGfUmUfUmAfUmUfCmGfGmAfAdT*dT; chain 2 rUrUrCrCrGrArArUrArArArCrUrCrCrArGrGrCdT*dT) | 9%
16 | AD-12393: modified dsRNA, SEQ ID NO:1481/1482 (chain 1 rGfCfCfUrGrGrArGrGfUfUfUrAfUfUfCrGrGrArA; chain 2 rUrUrCrCrGrArAmUrArArArCrUrCmCrArGrGrCdT*dT) | 17%
17 | AD-12054: modified dsRNA, SEQ ID NO:1343/1344 (chain 1 rGrCrCrUrGrGrArGrUrUrUrArUrUrCrGrGrArAdT*dT; chain 2 rUrUrCrCrGrArArUrArArArCrUrCrCrArGrGrC*mC*mU) | 8%
18 | AD-12067: modified dsRNA, SEQ ID NO:1369/1370 (chain 1 GCCUGGNAGUUUAUUCGGAATT; chain 2 rUrUrCrCrGrArArUrArArArCrUrCrCrArGrGrCdT*dT; chain 1: chemistry not given here) | 17%
19 | AD-12390: modified dsRNA, SEQ ID NO:1475/1476 (chain 1 rGfCfCfUrGrGrArGrGfUfUfUrAfUfUfCrGrGrArA; chain 2 rUrUrCrCrGrArArUrArArArCrUrCrCrArGrGrC*mC*mU) | 17%
20 | AD-12355: modified dsRNA, SEQ ID NO:1407/1408 (chain 1 fGmCfCmUfGmGfAmGfUmUfUmAfUmUfCmGfGmAfA; chain 2 rUrUrCrCrGrArAmUrArArArCrUrCmCrArGrGrCdT*dT) | 9%
21 | AD-12389: modified dsRNA, SEQ ID NO:1473/1474 (chain 1 rGfCfCfUrGrGrArGrGfUfUfUrAfUfUfCrGrGrArA; chain 2 {P}-mUfUmCfCmGfAmAfUmAfAmAfCmUfCmCfAmGfGmC*fC*mU) | 16%
22 | AD-12347: modified dsRNA, SEQ ID NO:1393/1394 (chain 1 rGrCrCrUrGrGrArGrUrUrUrArUrUrCrGrGrArAdT*dT; chain 2 {P}-mUfUmCfCmGfAmAfUmAfAmAfCmUfCmCfAmGfGmCdT*dT) | 11%
23 | AD-12398: modified dsRNA, SEQ ID NO:1491/1492 (chain 1 fGmCfCmUfGmGfAmGfUmUfUmAfUmUfCmGfGmAfAdT*dT; chain 2 {P}-fUfUfCfCrGrArAfUrArArAfCfUfCfCrArGrGfC*fC*fU) | 11%
24 | AD-12391: modified dsRNA, SEQ ID NO:1477/1478 (chain 1 rGfCfCfUrGrGrArGrGfUfUfUrAfUfUfCrGrGrArA; chain 2 rUrUrCrCrGmAmArUrAmAmArCrUrCrCrAmGmGmC) | 21%
25 | AD-12343: modified dsRNA, SEQ ID NO:1385/1386 (chain 1 fGmCfCmUfGmGfAmGfUmUfUmAfUmUfCmGfGmAfAdT*dT; chain 2 mUrUmCrCrGrArAmUrArArArCrUmCmCrArGrGrCdT*dT) | 24%
26 | AD-12046: modified dsRNA, SEQ ID NO:1327/1328 (chain 1 rGmCmCmUrGrGrArGmUmUmUrAmUmUmCrGrGrArA; chain 2 rUrUrCrCrGrArArUrArArArCrUrCrCrArGrGrC*mC*mU) | 13%
27 | AD-12062: modified dsRNA, SEQ ID NO:1359/1360 (chain 1 rGmCrCmUrGmGrAmGrUmUrUmArUmUrCmGrGmArAdTdT[Ab]; chain 2 rUrUrCrCrGmAmArUrAmAmArCrUrCrCrAmGmGmCdTdT[Ab]) | 10%
28 | AD-12338: modified dsRNA, SEQ ID NO:1375/1376 (chain 1 fGmCfCmUfGmGfAmGfUmUfUmAfUmUfCmGfGmAfA; chain 2 {P}-mUfUmCfCmGfAmAfUmAfAmAfCmUfCmCfAmGfGmC) | 15%
29 | AD-12045: modified dsRNA, SEQ ID NO:1325/1326 (chain 1 rGrCrCrUrGrGrArGrUrUrUrArUrUrCrGrGrArAdT*dT; chain 2 rUrUrCmCrGrArArUrArArArCrUrCrCrArGrGrCdT*dT) | 8%
